Test results as given in patent US11078207B2, “Substituted pyrrolo[2,3-d]pyrimidines as HER2 inhibitors” (TAIHO PHARMACEUTICAL CO., LTD., priority 2019, dated 2021).

Legend:
[1] = molecular target: HER2 exon 20 insertion mutant (HER2ex20insYVMA, A775_G776insYVMA) (Homo sapiens, UniProt P04626, DUP772-775); assay: Inhibitory action (in vitro) against HER2 exon 20 insertion mutant phosphorylation activity; type: biochemical; details: 30 min pre-incubation, ATP 200 μM, 25° C. 220 minutes
Summary of the method: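 Purified recombinant human HER2 A775_G776insYVMA pre-incubated with compound (5% DMSO) 30 min at 25 °C in Tris pH 7.5 buffer; reaction with 1 μM ProfilerPro Peptide 22, 200 μM ATP, 25 mM MnCl2, 20 mM MgCl2 for 220 min at 25 °C, stopped with EDTA. Phosphorylated and unphosphorylated peptide separated by microchannel capillary electrophoresis.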

SK-BR-3 cells = assay: Growth inhibitory activity against HER2 expressing cell line SK-BR-3; type: cell-based; details: Homo sapiens, SK-BR-3, 72 h; 3 days, CellTiter-Glo 2.0
Summary of the method: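 SK-BR-3 cells in McCoy's 5a with 10% FBS, pre-cultured 1 day, then exposed to compound (final DMSO 0.2%) for 3 days at 37° C, 5% CO2. Viability by CellTiter-Glo 2.0 luminescence; growth inhibition % = (C−T)/C×100 versus untreated wells.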

Ba/F3-HER2insYVMA cells = Ba/F3-HER2insYVMA cells (Homo sapiens, UniProt P04626, DUP772-775, cells depend on it); assay: Growth inhibitory activity against HER2 exon 20 insertion mutant expressing cell line; type: cell-based, mouse; details: 3 days, CellTiter-Glo 2.0, read-out: HER2ex20insYVMA cell growth inhibitory activity IC50 value
Ba/F3-HER2insYVMA cells, sequence (P04626 with tags, fused parts or gaps DUP772-775): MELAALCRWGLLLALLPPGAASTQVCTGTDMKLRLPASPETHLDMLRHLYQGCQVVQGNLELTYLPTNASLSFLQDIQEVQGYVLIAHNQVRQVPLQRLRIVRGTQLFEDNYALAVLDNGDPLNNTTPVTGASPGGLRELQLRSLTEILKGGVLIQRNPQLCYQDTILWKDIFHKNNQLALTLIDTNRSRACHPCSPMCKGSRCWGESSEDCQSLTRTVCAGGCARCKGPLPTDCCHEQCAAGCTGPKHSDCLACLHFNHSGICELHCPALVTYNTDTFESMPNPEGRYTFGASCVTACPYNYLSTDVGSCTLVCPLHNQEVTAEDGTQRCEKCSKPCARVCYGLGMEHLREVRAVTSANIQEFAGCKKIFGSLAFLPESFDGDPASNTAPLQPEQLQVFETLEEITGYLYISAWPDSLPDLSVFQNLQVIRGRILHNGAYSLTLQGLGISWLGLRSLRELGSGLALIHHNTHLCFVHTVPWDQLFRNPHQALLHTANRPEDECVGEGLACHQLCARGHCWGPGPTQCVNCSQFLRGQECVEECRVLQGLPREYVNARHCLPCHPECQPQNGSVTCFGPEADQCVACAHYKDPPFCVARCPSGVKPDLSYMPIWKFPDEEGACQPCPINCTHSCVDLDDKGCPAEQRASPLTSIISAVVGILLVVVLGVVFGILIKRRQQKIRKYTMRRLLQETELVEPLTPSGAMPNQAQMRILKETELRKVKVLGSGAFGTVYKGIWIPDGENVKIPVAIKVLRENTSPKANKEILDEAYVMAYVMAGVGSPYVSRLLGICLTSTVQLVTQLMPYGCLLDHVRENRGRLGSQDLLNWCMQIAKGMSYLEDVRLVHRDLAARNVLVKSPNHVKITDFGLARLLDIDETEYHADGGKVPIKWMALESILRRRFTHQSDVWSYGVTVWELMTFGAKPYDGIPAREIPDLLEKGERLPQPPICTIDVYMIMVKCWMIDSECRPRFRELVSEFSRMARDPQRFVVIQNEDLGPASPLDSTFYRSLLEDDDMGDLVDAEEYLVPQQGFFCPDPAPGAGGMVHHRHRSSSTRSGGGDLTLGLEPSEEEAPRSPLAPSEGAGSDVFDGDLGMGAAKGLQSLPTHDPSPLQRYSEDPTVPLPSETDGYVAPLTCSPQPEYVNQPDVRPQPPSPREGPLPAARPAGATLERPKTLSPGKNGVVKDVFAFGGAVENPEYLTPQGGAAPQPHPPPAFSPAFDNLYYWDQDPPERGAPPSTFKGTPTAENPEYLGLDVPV

NCI-N87 cells = assay: Growth inhibitory activity against HER2 expressing cell line NCI-N87; type: cell-based; details: Homo sapiens, NCI-N87, 72 h; 3 days, CellTiter-Glo 2.0
Experimental: NCI-N87 cells as a HER2 overexpressing human stomach cancer cell line (American Type Culture Collection, Cat No. ATCC (registered trademark) CRL-5822) were suspended in an RPMI640 medium (Wako Pure Chemical Industries, Ltd.) supplemented with 10% fetal bovine serum. Subsequently, the cell suspension was seeded in each well of a 96-well flat-bottom microplate, and was then cultured in a 5% carbon dioxide gas-containing culture vessel at 37° C. for 1 day. Thereafter, the compound of the present invention was dissolved in DMSO, and the compound was diluted to 1000 times the final concentration in DMSO. The compound in the DMSO solution was diluted with the medium used in the suspension of the cells, and the obtained solution was then added to each well of the culture plate, so that the final concentration of DMSO became 0.1%. Regarding a control well, DMSO was diluted with the medium used in the suspension of the cells, and the obtained solution was then added to each well of the culture plate, so that the final concentration of DMSO became 0.1%. After addition of a drug solution, the obtained mixture was further cultured in the 5% carbon dioxide gas-containing culture vessel at 37° C. for 3 days. After completion of the culture for 3 days in the presence of the compound, the cells were counted using CellTiter-Glo 2.0 (manufactured by Promega) in accordance with the protocols recommended by Promega. The growth inhibition percentage was calculated according to the following equation. […] Growth inhibitory percentage (%)=(C−T)/(C)×100 T: Emission intensity from the well to which the test compound was added C: Emission intensity from the well to which the test compound was not added

HER2 exon 20 insertion mutant (HER2ex20insYVMA, A775_G776insYVMA), sequence (P04626 with tags, fused parts or gaps DUP772-775): as above

| IC50 [1] [nM] | IC50 (SK-BR-3 cells) [nM] | GI50 (Ba/F3-HER2insYVMA cells) [nM] | Compound | IC50 (NCI-N87 cells) [nM] |
| --- | --- | --- | --- | --- |
| 0.44 | 1.4 | 9.7 | C=CC(=O)N1C[C@H](n2c(C#CC)c(C(=O)N[C@H](C)c3ccccc3)c3c(N)ncnc32)C[C@@H]1CC [Example 16, 7-((3R,5S)-1-acryloyl-5-ethylpyrrolidin-3-yl)-4-amino-N—((R)-1-phenylethyl)-6-(prop-1-yn-1-yl)-7H-pyrrolo[2,3-d]pyrimidine-5-carboxamide] | 0.9 |
| 0.54 | 4 | 20 | C=CC(=O)N1C[C@H](n2c(C#CC3CC3)c(C(=O)N[C@H](C)c3ccccc3)c3c(N)ncnc32)C[C@@H]1CC [Example 17, 7-((3R,5S)-1-acryloyl-5-ethylpyrrolidin-3-yl)-4-amino-6-(cyclopropylethynyl)-N—((R)-1-phenylethyl)-7H-pyrrolo[2,3-d]pyrimidine-5-carboxamide] | 2.2 |
| < 0.3 | 3.4 | 14 | C=CC(=O)N1C[C@H](n2c(C#CC3CC3)c(C(=O)N[C@H](C)c3ccccc3)c3c(N)ncnc32)C[C@@H]1COC [Example 18, 7-((3R,5R)-1-acryloyl-5-(methoxymethyl)pyrrolidin-3-yl)-4-amino-6-(cyclopropylethynyl)-N—((R)-1-phenylethyl)-7H-pyrrolo[2,3-d]pyrimidine-5-carboxamide] | 2.6 |

Second part, the compound before the results:

| Compound | IC50 [1] [nM] | IC50 (SK-BR-3 cells) [nM] | GI50 (Ba/F3-HER2insYVMA cells) [nM] | IC50 (NCI-N87 cells) [nM] |
| --- | --- | --- | --- | --- |
| C=CC(=O)N1C[C@H](n2c(C#CC3CC3)c(C(=O)N[C@H](C)c3cccc(F)c3F)c3c(N)ncnc32)C[C@@H]1C [Example 10, 7-((3R,5S)-1-acryloyl-5-methylpyrrolidin-3-yl)-4-amino-6-(cyclopropylethynyl)-N—((R)-1-(2,3-difluorophenyl)ethyl)-7H-pyrrolo[2,3-d]pyrimidine-5-carboxamide] | < 0.3 | 13 | 29 | 10.5 |
| C=CC(=O)N1C[C@H](n2c(C#CC3CC3)c(C(=O)N[C@H](C)c3ccccc3)c3c(N)ncnc32)C[C@@H]1C [Example 11, 7-((3R,5S)-1-acryloyl-5-methylpyrrolidin-3-yl)-4-amino-6-(cyclopropylethynyl)-N—((R)-1-phenylethyl)-7H-pyrrolo[2,3-d]pyrimidine-5-carboxamide] | < 0.3 | 6.6 | 29 | 9.9 |
| C=CC(=O)N1C[C@H](n2c(C#CC(C)(C)C)c(C(=O)N[C@H](C)c3ccccc3)c3c(N)ncnc32)C[C@@H]1C [Example 12, 7-((3R,5S)-1-acryloyl-5-methylpyrrolidin-3-yl)-4-amino-6-(3,3-dimethylbut-1-yn-1-yl)-N—((R)-1-phenylethyl)-7H-pyrrolo[2,3-d]pyrimidine-5-carboxamide] | 0.39 | 17 | 43 | 15 |
| C=CC(=O)N1C[C@H](n2c(C#CC(C)(C)OC)c(C(=O)N[C@H](C)c3ccccc3)c3c(N)ncnc32)C[C@@H]1C [Example 13, 7-((3R,5S)-1-acryloyl-5-methylpyrrolidin-3-yl)-4-amino-6-(3-methoxy-3-methylbut-1-yn-1-yl)-N—((R)-1-phenylethyl)-7H-pyrrolo[2,3-d]pyrimidine-5-carboxamide] | 0.44 | 14 | 23 | 11.7 |
| C=CC(=O)N1C[C@H](n2c(C#CCC)c(C(=O)N[C@H](C)c3ccccc3)c3c(N)ncnc32)C[C@@H]1C [Example 14, 7-((3R,5S)-1-acryloyl-5-methylpyrrolidin-3-yl)-4-amino-6-(but-1-yn-1-yl)-N—((R)-1-phenylethyl)-7H-pyrrolo[2,3-d]pyrimidine-5-carboxamide] | < 0.3 | 8.1 | 27 | 9.1 |
